From US11596639B2, “Substituted indole Mcl-1 inhibitors” (Vanderbilt University, priority 2016, dated 2023)
Where two headings read alike, the source gives them in different places.

How the values were obtained:
[1] = molecular target: Mcl-1 (Homo sapiens (Human), UniProt Q07820); experiment: TR-FRET binding assay, FITC-Bak peptide and MBP-tagged Mcl-1; details: read-out: Ki for Inhibition of Mcl-1 by TR-FRET assay
Method: Compounds are diluted in DMSO in a 16-point, semilog serial dilution scheme. […] The plate was mixed and incubated for 3 hours at room temperature. […] TR-FRET signal is plotted and IC50 and Ki values are calculated in the same manner as the fluorescence polarization anisotropy based competition assays.

[2] = tested on: H929 human cancer cell lines; experiment: Cellular viability / proliferation (Cell TiterGlo, 72 h); type: cell-based
Summary of the method: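 Plating is at 1,000 cells/well in 10% FBS medium; after 24 h, compound is added as a 2-fold series starting at 50 μM with under 1% DMSO.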

[3] = Homo sapiens, NCI-H929, 72 h, read-out: GI50 on cellular proliferation of H929 human cancer cell lines, H929 cells, 72 h, Cell TiterGlo, 10% FBS

Mcl-1, sequence (Q07820 172-327): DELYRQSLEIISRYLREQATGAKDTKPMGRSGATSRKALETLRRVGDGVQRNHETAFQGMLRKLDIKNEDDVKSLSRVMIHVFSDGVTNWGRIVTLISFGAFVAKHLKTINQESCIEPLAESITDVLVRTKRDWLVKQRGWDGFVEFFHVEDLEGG

Molecule	Ki [1]	GI50 [2, 3]	GI50 ([2]; H929 cells, 72 h, Cell TiterGlo, 10% FBS, read-out: GI50 on cellular proliferation of H929 human cancer cell lines)
COCCOc1cc(N2C[C@@H](C)n3c(c(CCCOc4cc(C)c(Cl)c(C)c4)c4ccc(Cl)c(-c5c(C)nn(C)c5C)c43)C2=O)c2c(c1)cc(C(=O)O)n2Cc1ccccn1 [Example 537, (R)-7-(7-Chloro-10-(3-(4-chloro-3,5-dimethylphenoxy)propyl)-4-methyl-1-oxo-6-(1,3,5-trimethyl-1H-pyrazol-4-yl)-3,4-dihydropyrazino[1,2-a]indol-2(1H)-yl)-5-(2-methoxyethoxy)-1-(pyridin-2-ylmethyl)-1H-indole-2-carboxylic acid]	< 0.0002 µM	< 0.2 µM	
Cc1cc(OCCCc2c3n(c4c(-c5c(C)nn(C)c5C)c(Cl)ccc24)[C@H](C)CN(c2cc(OCc4cccnc4)cc4cc(C(=O)O)n(C)c24)C3=O)cc(C)c1Cl [Example 487, (R)-7-(7-Chloro-10-(3-(4-chloro-3,5-dimethylphenoxy)propyl)-4-methyl-1-oxo-6-(1,3,5-trimethyl-1H-pyrazol-4-yl)-3,4-dihydropyrazino[1,2-a]indol-2(1H)-yl)-1-methyl-5-(pyridin-3-ylmethoxy)-1H-indole-2-carboxylic acid]	0.00023 µM	0.28 µM	
Cc1cc(OCCCc2c3n(c4c(-c5c(C)nn(C)c5C)c(Cl)ccc24)[C@H](C)CN(c2cc(OC4CCN(C)C4)cc4cc(C(=O)O)n(C)c24)C3=O)cc(C)c1Cl (stereo partly drawn) [Example 521, 7-((R)-7-chloro-10-(3-(4-chloro-3,5-dimethylphenoxy)propyl)-4-methyl-1-oxo-6-(1,3,5-trimethyl-1H-pyrazol-4-yl)-3,4-dihydropyrazino[1,2-a]indol-2(1H)-yl)-1-methyl-5-((1-methylpyrrolidin-3-yl)oxy)-1H-indole-2-carboxylic acid]	< 0.0002 µM	0.61 µM	
Cc1cc(OCCCc2c3n(c4c(-c5c(C)nn(C)c5C)c(Cl)ccc24)[C@H](C)CN(c2cn(CCN4CCN(C)CC4)c4ccc(C(=O)O)cc24)C3=O)cc(C)c1Cl [Example 569, (R)-3-(7-chloro-10-(3-(4-chloro-3,5-dimethylphenoxy)propyl)-4-methyl-1-oxo-6-(1,3,5-trimethyl-1H-pyrazol-4-yl)-3,4-dihydropyrazino[1,2-a]indol-2(1H)-yl)-1-(2-(4-methylpiperazin-1-yl)ethyl)-1H-indole-5-carboxylic acid]	0.00049 µM	0.47 µM	
Cc1cc(OCCCc2c3n(c4c(-c5c(C)nn(C)c5C)c(Cl)ccc24)[C@H](C)CN(c2cc(C(=O)N4CCN(C)C(=O)C4)cc4cc(C(=O)O)n(C)c24)C3=O)cc(C)c1Cl [Example 630, (R)-7-(7-chloro-10-(3-(4-chloro-3,5-dimethylphenoxy)propyl)-4-methyl-1-oxo-6-(1,3,5-trimethyl-1H-pyrazol-4-yl)-3,4-dihydropyrazino[1,2-a]indol-2(1H)-yl)-1-methyl-5-(4-methyl-3-oxopiperazine-1-carbonyl)-1H-indole-2-carboxylic acid]	< 0.0002 µM	9 µM	
(R)-7-Chloro-10-(3-(4-chloro-3,5-dimethylphenoxy)propyl)-4-methyl-2-(5-(1-methyl-1H-1,2,4-triazol-3-yl)-1-(2-morpholinoethyl)-1H-indol-3-yl)-4-(1,3,5-trimethyl-1H-pyrazol-4-yl)-3,4-dihydropyrazino[1,2-a]indol-1(2H)-one [Example 583]	0.00073 µM		< 0.2 µM
CCOCCn1c(C(=O)O)cc2cc(C)cc(N3C[C@@H](C)n4c(c(CCCOc5cc(C)c(Cl)c(C)c5)c5ccc(Cl)c(-c6c(C)nn(C)c6C)c54)C3=O)c21 [Example 579, (R)-7-(7-chloro-10-(3-(4-chloro-3,5-dimethylphenoxy)propyl)-4-methyl-1-oxo-6-(1,3,5-trimethyl-1H-pyrazol-4-yl)-3,4-dihydropyrazino[1,2-a]indol-2(1H)-yl)-1-(2-ethoxyethyl)-5-methyl-1H-indole-2-carboxylic acid]	< 0.0002 µM	0.24 µM	
